Experimental data as given in PubChem BioAssay (NCI).
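Briefly, cells in 96-well plates were exposed to five compound concentrations for 48 h, and endpoints were estimated by linear interpolation. At the GI50, growth is halved. Definition used: TGI = concentration required for complete inhibition of growth.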

What was measured:
Assay in all cases: NCI anticancer screen, dose series, 48 h
SF-295 CNS = test system: SF-295 CNS
T-47D breast = test system: T-47D breast
SNB-75 CNS = test system: SNB-75 CNS
MALME-3M melanoma = test system: MALME-3M melanoma
OVCAR-5 ovarian = test system: OVCAR-5 ovarian
RPMI-8226 leukemia = test system: RPMI-8226 leukemia
CAKI-1 renal = test system: CAKI-1 renal
M14 melanoma = test system: M14 melanoma
HCT-116 colon = test system: HCT-116 colon
DU-145 prostate = test system: DU-145 prostate
U251 CNS = test system: U251 CNS
LOX IMVI melanoma = test system: LOX IMVI melanoma
SK-MEL-5 melanoma = test system: SK-MEL-5 melanoma
NCI-H23 lung = test system: NCI-H23 lung
EKVX NSCLC = test system: EKVX NSCLC
SN12C renal = test system: SN12C renal
SK-OV-3 ovarian = test system: SK-OV-3 ovarian
HS 578T breast = test system: HS 578T breast
NCI-H226 lung = test system: NCI-H226 lung
HCT-15 colon = test system: HCT-15 colon
SNB-19 CNS = test system: SNB-19 CNS
NCI-H460 lung = test system: NCI-H460 lung
SK-MEL-28 melanoma = test system: SK-MEL-28 melanoma
BT-549 breast = test system: BT-549 breast
K-562 leukemia = test system: K-562 leukemia
SF-268 CNS = test system: SF-268 CNS
COLO 205 colon = test system: COLO 205 colon
OVCAR-8 ovarian = test system: OVCAR-8 ovarian
MDA-MB-231 breast = test system: MDA-MB-231 breast
UACC-257 melanoma = test system: UACC-257 melanoma
HL-60(TB) leukemia = test system: HL-60(TB) leukemia
NCI-H522 lung = test system: NCI-H522 lung
IGROV1 ovarian = test system: IGROV1 ovarian
786-0 renal = test system: 786-0 renal
HT29 colon = test system: HT29 colon
RXF 393 renal = test system: RXF 393 renal
TK-10 renal = test system: TK-10 renal
CCRF-CEM leukemia = test system: CCRF-CEM leukemia
UO-31 renal = test system: UO-31 renal
KM12 colon = test system: KM12 colon
SK-MEL-2 melanoma = test system: SK-MEL-2 melanoma
SW-620 colon = test system: SW-620 colon
ACHN renal = test system: ACHN renal
A498 renal = test system: A498 renal
MOLT-4 leukemia = test system: MOLT-4 leukemia
SR leukemia = test system: SR leukemia
A549 NSCLC = test system: A549 NSCLC
MCF7 breast = test system: MCF7 breast
NCI/ADR-RES ovarian = test system: NCI/ADR-RES ovarian
HOP-92 NSCLC = test system: HOP-92 NSCLC
HCC-2998 colon = test system: HCC-2998 colon
SF-539 CNS = test system: SF-539 CNS
OVCAR-4 ovarian = test system: OVCAR-4 ovarian
UACC-62 melanoma = test system: UACC-62 melanoma
HOP-62 NSCLC = test system: HOP-62 NSCLC
OVCAR-3 ovarian = test system: OVCAR-3 ovarian
PC-3 prostate = test system: PC-3 prostate

Molecule Cc1ccc(C2=NN(c3ccc(S(C)(=O)=O)cc3)C(=O)CC2)cc1 has a GI50 (SF-295 CNS) of 0.396 µM, a TGI (SF-295 CNS) of 16.8 µM and a GI50 (T-47D breast) of 3.82 µM. It also gave a TGI (T-47D breast) greater than 100 µM, a GI50 (SNB-75 CNS) of 0.542 µM and a TGI (SNB-75 CNS) of 9.25 µM. It also gave a GI50 (MALME-3M melanoma) of 51.9 µM, a TGI (MALME-3M melanoma) greater than 100 µM and a GI50 (OVCAR-5 ovarian) of 10.1 µM. The TGI (OVCAR-5 ovarian) was greater than 100 µM, the GI50 (RPMI-8226 leukemia) was 1.62 µM and the TGI (RPMI-8226 leukemia) was greater than 100 µM. It also gave a GI50 (CAKI-1 renal) of 1.64 µM, a TGI (CAKI-1 renal) greater than 100 µM and a GI50 (M14 melanoma) of 0.419 µM. It also gave a TGI (M14 melanoma) greater than 100 µM, a GI50 (HCT-116 colon) of 0.431 µM and a TGI (HCT-116 colon) greater than 85.4 µM. For the same molecule, the GI50 (DU-145 prostate) was 2.48 µM, the TGI (DU-145 prostate) was greater than 100 µM and the GI50 (U251 CNS) was 0.579 µM. It also gave a TGI (U251 CNS) greater than 100 µM, a GI50 (LOX IMVI melanoma) of 0.806 µM and a TGI (LOX IMVI melanoma) greater than 100 µM. The GI50 (SK-MEL-5 melanoma) was 0.633 µM, the TGI (SK-MEL-5 melanoma) was greater than 42.1 µM and the GI50 (NCI-H23 lung) was 2.13 µM. For the same molecule, the TGI (NCI-H23 lung) was greater than 100 µM, the GI50 (EKVX NSCLC) was 3.84 µM and the TGI (EKVX NSCLC) was greater than 100 µM. It also gave a GI50 (SN12C renal) of 5.57 µM, a TGI (SN12C renal) greater than 100 µM and a GI50 (SK-OV-3 ovarian) of 1.57 µM. The TGI (SK-OV-3 ovarian) was 21.5 µM, the GI50 (HS 578T breast) was 2.24 µM and the TGI (HS 578T breast) was greater than 100 µM. It also gave a GI50 (NCI-H226 lung) of 42.3 µM, a TGI (NCI-H226 lung) greater than 100 µM and a GI50 (HCT-15 colon) of 0.74 µM. For the same molecule, the TGI (HCT-15 colon) was greater than 100 µM, the GI50 (SNB-19 CNS) was 6.42 µM and the TGI (SNB-19 CNS) was greater than 100 µM. For the same molecule, the GI50 (NCI-H460 lung) was 0.402 µM, the TGI (NCI-H460 lung) was greater than 100 µM and the GI50 (SK-MEL-28 melanoma) was 2.58 µM. The TGI (SK-MEL-28 melanoma) was greater than 100 µM, the GI50 (BT-549 breast) was 0.569 µM and the TGI (BT-549 breast) was greater than 100 µM. The GI50 (K-562 leukemia) was 0.408 µM, the TGI (K-562 leukemia) was greater than 100 µM and the GI50 (SF-268 CNS) was 6.25 µM. It also gave a TGI (SF-268 CNS) greater than 100 µM, a GI50 (COLO 205 colon) of 0.587 µM and a TGI (COLO 205 colon) of 5.16 µM. For the same molecule, the GI50 (OVCAR-8 ovarian) was 1.35 µM, the TGI (OVCAR-8 ovarian) was greater than 100 µM and the GI50 (MDA-MB-231 breast) was 1.37 µM. The TGI (MDA-MB-231 breast) was greater than 100 µM, the GI50 (UACC-257 melanoma) was 3.4 µM and the TGI (UACC-257 melanoma) was greater than 100 µM. For the same molecule, the GI50 (HL-60(TB) leukemia) was 0.525 µM, the GI50 (NCI-H522 lung) was 0.225 µM and the TGI (NCI-H522 lung) was 1.04 µM. The GI50 (IGROV1 ovarian) was 1.82 µM, the TGI (IGROV1 ovarian) was greater than 100 µM and the GI50 (786-0 renal) was 7.26 µM. For the same molecule, the TGI (786-0 renal) was greater than 100 µM, the GI50 (HT29 colon) was 0.349 µM and the TGI (HT29 colon) was greater than 32.9 µM. It also gave a GI50 (RXF 393 renal) of 1.11 µM, a TGI (RXF 393 renal) greater than 26.1 µM and a GI50 (TK-10 renal) of 12.8 µM. The TGI (TK-10 renal) was greater than 100 µM, the GI50 (CCRF-CEM leukemia) was 0.843 µM and the TGI (CCRF-CEM leukemia) was greater than 100 µM. The GI50 (UO-31 renal) was 7.85 µM, the TGI (UO-31 renal) was greater than 100 µM and the GI50 (KM12 colon) was 0.452 µM. For the same molecule, the TGI (KM12 colon) was greater than 100 µM, the GI50 (SK-MEL-2 melanoma) was 0.541 µM and the TGI (SK-MEL-2 melanoma) was greater than 100 µM. The GI50 (SW-620 colon) was 0.368 µM, the TGI (SW-620 colon) was greater than 100 µM and the GI50 (ACHN renal) was 8.52 µM. The TGI (ACHN renal) was greater than 100 µM, the GI50 (A498 renal) was 0.282 µM and the TGI (A498 renal) was 7.73 µM. It also gave a GI50 (MOLT-4 leukemia) of 0.875 µM, a TGI (MOLT-4 leukemia) greater than 100 µM and a GI50 (SR leukemia) of 0.4 µM. It also gave a TGI (SR leukemia) greater than 100 µM, a GI50 (A549 NSCLC) of 0.615 µM and a TGI (A549 NSCLC) greater than 100 µM. It also gave a GI50 (MCF7 breast) of 1.3 µM, a TGI (MCF7 breast) greater than 100 µM and a GI50 (NCI/ADR-RES ovarian) of 0.322 µM. For the same molecule, the TGI (NCI/ADR-RES ovarian) was greater than 100 µM, the GI50 (HOP-92 NSCLC) was 1.02 µM and the TGI (HOP-92 NSCLC) was greater than 28.8 µM. The GI50 (HCC-2998 colon) was 3.1 µM, the TGI (HCC-2998 colon) was greater than 100 µM and the GI50 (SF-539 CNS) was 1.45 µM. For the same molecule, the TGI (SF-539 CNS) was 23.4 µM, the GI50 (OVCAR-4 ovarian) was greater than 27.3 µM and the TGI (OVCAR-4 ovarian) was greater than 100 µM. For the same molecule, the GI50 (UACC-62 melanoma) was 0.493 µM, the TGI (UACC-62 melanoma) was greater than 100 µM and the GI50 (HOP-62 NSCLC) was 1.78 µM. The TGI (HOP-62 NSCLC) was greater than 100 µM, the GI50 (OVCAR-3 ovarian) was 0.349 µM and the TGI (OVCAR-3 ovarian) was 2.35 µM. For the same molecule, the GI50 (PC-3 prostate) was 1.78 µM and the TGI (PC-3 prostate) was greater than 100 µM.
